Experimental data published in publication PMC6704710, “Preclinical evaluation of 3D185, a novel potent inhibitor of FGFR1/2/3 and CSF-1R, in FGFR-dependent and macrophage-dominant cancer models” (Journal of Experimental & Clinical Cancer Research : CR, 2019).

Key:
PKCμ(h) = target: T1, PKCμ(h) (Homo sapiens, UniProt Q15139); experiment: Eurofins kinase panel; type: biochemical; conditions: read-out: Inhibition rate (%)
T1 construct: purchased Eurofins (KinaseProfiler)
T1 sequence (Q15139 1-912): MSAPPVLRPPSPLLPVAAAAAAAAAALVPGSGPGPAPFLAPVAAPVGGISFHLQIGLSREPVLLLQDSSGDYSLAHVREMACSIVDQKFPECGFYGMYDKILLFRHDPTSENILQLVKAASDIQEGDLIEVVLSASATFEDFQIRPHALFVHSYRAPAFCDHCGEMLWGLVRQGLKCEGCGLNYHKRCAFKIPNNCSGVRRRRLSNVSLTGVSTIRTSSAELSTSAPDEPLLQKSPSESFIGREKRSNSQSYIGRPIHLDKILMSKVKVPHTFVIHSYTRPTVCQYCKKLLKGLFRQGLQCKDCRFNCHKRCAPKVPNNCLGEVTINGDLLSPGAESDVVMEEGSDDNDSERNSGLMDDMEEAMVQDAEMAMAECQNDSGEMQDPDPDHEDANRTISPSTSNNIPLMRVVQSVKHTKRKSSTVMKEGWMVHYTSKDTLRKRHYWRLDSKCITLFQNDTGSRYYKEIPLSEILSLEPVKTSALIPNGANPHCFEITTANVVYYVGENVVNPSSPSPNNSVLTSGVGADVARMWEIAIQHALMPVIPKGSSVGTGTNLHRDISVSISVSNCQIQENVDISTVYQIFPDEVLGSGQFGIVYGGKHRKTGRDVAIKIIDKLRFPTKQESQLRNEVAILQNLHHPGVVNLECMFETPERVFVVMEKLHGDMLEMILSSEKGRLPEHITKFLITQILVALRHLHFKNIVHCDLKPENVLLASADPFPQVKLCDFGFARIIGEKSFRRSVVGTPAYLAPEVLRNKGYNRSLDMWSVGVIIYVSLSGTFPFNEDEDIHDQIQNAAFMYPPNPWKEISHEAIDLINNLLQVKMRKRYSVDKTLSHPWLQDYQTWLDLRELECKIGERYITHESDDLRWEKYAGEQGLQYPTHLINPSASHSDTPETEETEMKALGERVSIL

[1] = test system: ERK phosphorylation in NCI-H1581 tumors; experiment: Pharmacodynamic study, intratumoral p-ERK; conditions: 6 h after single oral dose of 12.5, 25 or 50 mg/kg

## COc1cc(OC)c(Cl)c(-c2ccc3c(NC(=O)c4ccc(N5CCNC(C)(C)C5)cc4)n[nH]c3n2)c1Cl [3D185]
PKCμ(h); 10 nM
  inhibition at 0.01 µM: -2%
PKCμ(h); 100 nM
  inhibition at 0.1 µM: 2%
PKCμ(h); 1000 nM
  inhibition at 1 µM: 11%
[1]
  intratumoral ERK phosphorylation: nearly complete inhibition of ERK phosphorylation
